Test results reported in the NIST ThermoML archive (doi:10.1016/j.jct.2004.09.017).
± gives the expanded uncertainty stated by the source.

Experiments:
[1] = refractive index (Na D-line) (dimensionless); conditions: 298.2 K; 101.33 kPa; Liquid
[2] = relative permittivity at various frequencies (dimensionless); conditions: 298.2 K; 101.3 kPa; Liquid; Frequency=0.01 MHz; Wayne Kerr model 6425B Digibridge
[3] = relative permittivity at various frequencies (dimensionless); xn = mol fraction of the nth substance listed; conditions: 298.2 K, 101.3 kPa, Liquid, Frequency=0.1 MHz, Wayne Kerr model 6425B Digibridge
[4] = refractive index (Na D-line) (dimensionless); xn = mol fraction of the nth substance listed; conditions: 298.2 K, 101.3 kPa, Liquid

## CCCCC(CC)CO (configuration not stated) [2-ethyl-1-hexanol]
[1]
  refractive index: 1.4316 ± 0.001
[2]
  relative permittivity: 7.354 ± 0.29

## CCCCC(CC)CO (configuration not stated) [2-ethyl-1-hexanol] + CC(C)(C)O
[3]; x2 = 0
  relative permittivity: 7.354 ± 0.29
[3]; x2 = 0.05
  relative permittivity: 7.487 ± 0.3
[3]; x2 = 0.07
  relative permittivity: 7.598 ± 0.3
[3]; x2 = 0.09
  relative permittivity: 7.653 ± 0.31
[3]; x2 = 0.1
  relative permittivity: 7.685 ± 0.31
[3]; x2 = 0.2
  relative permittivity: 8.057 ± 0.32
[3]; x2 = 0.3
  relative permittivity: 8.506 ± 0.34
[3]; x2 = 0.4
  relative permittivity: 8.933 ± 0.36
[3]; x2 = 0.5
  relative permittivity: 9.398 ± 0.38
[3]; x2 = 0.6
  relative permittivity: 9.952 ± 0.4
[4]; x2 = 0
  refractive index: 1.4316 ± 0.001
[4]; x2 = 0.05
  refractive index: 1.4304 ± 0.001
[4]; x2 = 0.07
  refractive index: 1.4298 ± 0.001
[4]; x2 = 0.09
  refractive index: 1.429 ± 0.001
[4]; x2 = 0.1
  refractive index: 1.4287 ± 0.001
[4]; x2 = 0.2
  refractive index: 1.427 ± 0.001
[4]; x2 = 0.3
  refractive index: 1.4235 ± 0.001
[4]; x2 = 0.4
  refractive index: 1.42 ± 0.001
[4]; x2 = 0.5
  refractive index: 1.4163 ± 0.001
[4]; x2 = 0.6
  refractive index: 1.4117 ± 0.001

## CCCCC(CC)CO (configuration not stated) [2-ethyl-1-hexanol] + CCCCO
[3]; x2 = 0
  relative permittivity: 7.354 ± 0.29
[3]; x2 = 0.1
  relative permittivity: 8.21 ± 0.33
[3]; x2 = 0.15
  relative permittivity: 8.682 ± 0.35
[3]; x2 = 0.3
  relative permittivity: 10.48 ± 0.42
[3]; x2 = 0.42
  relative permittivity: 11.42 ± 0.46
[3]; x2 = 0.53
  relative permittivity: 12.01 ± 0.48
[3]; x2 = 0.63
  relative permittivity: 12.9 ± 0.52
[3]; x2 = 0.72
  relative permittivity: 14.34 ± 0.57
[3]; x2 = 0.8
  relative permittivity: 15.21 ± 0.61
[3]; x2 = 0.9
  relative permittivity: 16.41 ± 0.66
[4]; x2 = 0
  refractive index: 1.4316 ± 0.001
[4]; x2 = 0.1
  refractive index: 1.4291 ± 0.001
[4]; x2 = 0.15
  refractive index: 1.4278 ± 0.001
[4]; x2 = 0.3
  refractive index: 1.4238 ± 0.001
[4]; x2 = 0.42
  refractive index: 1.4214 ± 0.001
[4]; x2 = 0.53
  refractive index: 1.4182 ± 0.001
[4]; x2 = 0.63
  refractive index: 1.415 ± 0.001
[4]; x2 = 0.72
  refractive index: 1.412 ± 0.001
[4]; x2 = 0.8
  refractive index: 1.4088 ± 0.001
[4]; x2 = 0.9
  refractive index: 1.4036 ± 0.001

## CCCCC(CC)CO (configuration not stated) [2-ethyl-1-hexanol] + CCO
[3]; x2 = 0
  relative permittivity: 7.354 ± 0.29
[3]; x2 = 0.12
  relative permittivity: 8.086 ± 0.32
[3]; x2 = 0.23
  relative permittivity: 8.999 ± 0.36
[3]; x2 = 0.32
  relative permittivity: 10.192 ± 0.41
[3]; x2 = 0.4
  relative permittivity: 11.099 ± 0.44
[3]; x2 = 0.47
  relative permittivity: 12.08 ± 0.48
[3]; x2 = 0.53
  relative permittivity: 12.744 ± 0.51
[3]; x2 = 0.64
  relative permittivity: 14.496 ± 0.58
[3]; x2 = 0.7
  relative permittivity: 15.885 ± 0.64
[3]; x2 = 0.82
  relative permittivity: 18.259 ± 0.73
[4]; x2 = 0
  refractive index: 1.4316 ± 0.001
[4]; x2 = 0.12
  refractive index: 1.4261 ± 0.001
[4]; x2 = 0.23
  refractive index: 1.4232 ± 0.001
[4]; x2 = 0.32
  refractive index: 1.4194 ± 0.001
[4]; x2 = 0.4
  refractive index: 1.4162 ± 0.001
[4]; x2 = 0.47
  refractive index: 1.4123 ± 0.001
[4]; x2 = 0.53
  refractive index: 1.4097 ± 0.001
[4]; x2 = 0.64
  refractive index: 1.4015 ± 0.001
[4]; x2 = 0.7
  refractive index: 1.3971 ± 0.001
[4]; x2 = 0.82
  refractive index: 1.386 ± 0.001

## CC(C)(C)O [2-methylpropan-2-ol]
[1]
  refractive index: 1.3864 ± 0.001
[2]
  relative permittivity: 12.23 ± 0.49

## CC(C)(C)O [2-methylpropan-2-ol] + C1CCCCC1
[3]; x1 = 0.07
  relative permittivity: 2.051 ± 0.082
[3]; x1 = 0.1
  relative permittivity: 2.058 ± 0.082
[3]; x1 = 0.2
  relative permittivity: 2.089 ± 0.084
[3]; x1 = 0.3
  relative permittivity: 2.308 ± 0.092
[3]; x1 = 0.4
  relative permittivity: 2.586 ± 0.1
[3]; x1 = 0.5
  relative permittivity: 3.096 ± 0.12
[3]; x1 = 0.6
  relative permittivity: 3.88 ± 0.16
[3]; x1 = 0.8
  relative permittivity: 6.422 ± 0.26
[4]; x1 = 0.07
  refractive index: 1.4241 ± 0.001
[4]; x1 = 0.1
  refractive index: 1.4226 ± 0.001
[4]; x1 = 0.2
  refractive index: 1.4179 ± 0.001
[4]; x1 = 0.3
  refractive index: 1.4138 ± 0.001
[4]; x1 = 0.4
  refractive index: 1.41 ± 0.001
[4]; x1 = 0.5
  refractive index: 1.4056 ± 0.001
[4]; x1 = 0.6
  refractive index: 1.4007 ± 0.001
[4]; x1 = 0.8
  refractive index: 1.3928 ± 0.001

## CC(C)(C)O [2-methylpropan-2-ol] + CCCCC(CC)CO
[3]; x1 = 1
  relative permittivity: 12.23 ± 0.49
[4]; x1 = 1
  refractive index: 1.3864 ± 0.001

## CCCCO [butan-1-ol]
[1]
  refractive index: 1.3988 ± 0.001
[2]
  relative permittivity: 17.5 ± 0.7

## CCCCO [butan-1-ol] + CCCCC(CC)CO
[3]; x1 = 1
  relative permittivity: 17.5 ± 0.7
[4]; x1 = 1
  refractive index: 1.3988 ± 0.001

## C1CCCCC1 [cyclohexane] + CCCCO
[3]; x2 = 0.05
  relative permittivity: 2.439 ± 0.098
[3]; x2 = 0.1
  relative permittivity: 2.683 ± 0.11
[3]; x2 = 0.2
  relative permittivity: 3.112 ± 0.12
[3]; x2 = 0.3
  relative permittivity: 3.952 ± 0.16
[3]; x2 = 0.4
  relative permittivity: 4.888 ± 0.2
[3]; x2 = 0.5
  relative permittivity: 6.713 ± 0.27
[3]; x2 = 0.6
  relative permittivity: 8.451 ± 0.34
[3]; x2 = 0.72
  relative permittivity: 10.848 ± 0.43
[4]; x2 = 0.05
  refractive index: 1.4206 ± 0.001
[4]; x2 = 0.1
  refractive index: 1.4191 ± 0.001
[4]; x2 = 0.2
  refractive index: 1.4162 ± 0.001
[4]; x2 = 0.3
  refractive index: 1.4132 ± 0.001
[4]; x2 = 0.4
  refractive index: 1.4109 ± 0.001
[4]; x2 = 0.5
  refractive index: 1.4085 ± 0.001
[4]; x2 = 0.6
  refractive index: 1.4061 ± 0.001
[4]; x2 = 0.72
  refractive index: 1.4035 ± 0.001

## C1CCCCC1 [cyclohexane] + CCO
[3]; x2 = 0.1
  relative permittivity: 2.155 ± 0.086
[3]; x2 = 0.24
  relative permittivity: 2.571 ± 0.1
[3]; x2 = 0.42
  relative permittivity: 4.223 ± 0.17
[3]; x2 = 0.55
  relative permittivity: 6.462 ± 0.26
[3]; x2 = 0.66
  relative permittivity: 8.974 ± 0.36
[3]; x2 = 0.74
  relative permittivity: 11.249 ± 0.45
[3]; x2 = 0.81
  relative permittivity: 13.878 ± 0.56
[3]; x2 = 0.9
  relative permittivity: 17.89 ± 0.72
[4]; x2 = 0.1
  refractive index: 1.4235 ± 0.001
[4]; x2 = 0.24
  refractive index: 1.4179 ± 0.001
[4]; x2 = 0.42
  refractive index: 1.4103 ± 0.001
[4]; x2 = 0.55
  refractive index: 1.4032 ± 0.001
[4]; x2 = 0.66
  refractive index: 1.3953 ± 0.001
[4]; x2 = 0.74
  refractive index: 1.3887 ± 0.001
[4]; x2 = 0.81
  refractive index: 1.3813 ± 0.001
[4]; x2 = 0.9
  refractive index: 1.3733 ± 0.001

## CCO [ethanol]
[1]
  refractive index: 1.3592 ± 0.001
[2]
  relative permittivity: 23.646 ± 0.95

## CCO [ethanol] + CCCCC(CC)CO
[3]; x1 = 1
  relative permittivity: 23.646 ± 0.95
[4]; x1 = 1
  refractive index: 1.3592 ± 0.001
